Target: T1, Aβ40 and Aβ42 peptides in plasma and brain of TgCRND8 mice (Homo sapiens, UniProt P05067)
T1 construct: ELISA using Human Aβ40 and Aβ42 Fluorometric ELISA kits from Biosource; from tissue; host or cells: plasma and brain homogenate of TgCRND8 transgenic mice (hAPP transgene)
Assay: Short term treatment in adult transgenic CRND8 mice overexpressing βAPP: Aβ levels in plasma and brain by ELISA
Format: in vivo, Mouse
Conditions: for Brain homogenate Aβ40 Change Insoluble / Brain homogenate Aβ40 Change Soluble / Brain homogenate Aβ42 Change Insoluble / Brain homogenate Aβ42 Change Soluble / Plasma Aβ40 Change / Plasma Aβ42 Change: TgCRND8 mice
Text: Transgenic mice, […]8, expressing the human amyloid precursor protein (hAPP) develop a pathology resembling Alzheimer's disease. In particular, high levels of Aβ40 and Aβ 42 have been documented in the plasma and the brain of these animals at 8-9 weeks of age, followed by early accumulation of amyloid plaques similar to the senile plaques observed in AD patients. These animals also display progressive cognitive deficits that parallel the appearance of degenerative changes. See, […], et al., J. Biol. Chem. 276, 21562-70 (2001). The short term therapeutic effect of 19 compounds of the invention was studied. […] The following abbreviations are used to designate these animals from the 3rd and 4th generation backcross in the present protocol: TgCRND8-2.B6C3F1(N3); TgCRND8-2.B6C3F1(N4). Baseline animals (Group 1) consisted of naive TgCRND8-2. B6C3F1(N3) at 11±1 weeks of age. These mice were used to determine the Aβ levels in the plasma and brain of naive transgenic animals at the initiation of treatment. […] At the end of the treatment periods, plasma and perfused brains were collected for quantification of Aβ levels. […] Plasma samples were immediately frozen and stored at -80° C. pending analysis. The brains were removed, frozen, and stored at -80° C. awaiting analysis. […] Samples were spun at 15000 g for 20 minutes and the supernatants were transferred to fresh tubes. […] The tubes were vortexed for 30 seconds and frozen at -80° C. […] Samples were thawed at room temperature, sonicated at 80° C. for 15 minutes and frozen again. This cycle was repeated 3 times to ensure homogeneity and samples were returned to -80° C. pending analysis. Aβ levels were evaluated in plasma and brain samples by ELISA using Human Aβ40 and Aβ42 Fluorometric ELISA kits from Biosource (Cat. […] In short, samples were thawed at room temperature, sonicated for 5 minutes at 80° C. (sonication for brain homogenates; no sonication for plasma samples) and kept on ice. Aβ peptides were captured using 100 μl of the diluted samples to the plate and incubated without shaking at 4° C. overnight. The samples were aspirated and the wells were rinsed 4 times with wash buffer obtained from the Biosource ELISA kit. The anti-Aβ40 or anti-Aβ42 rabbit polyclonal antiserum (specific for the Aβ40 or Aβ42 peptide) was added (100 μl) and the plate was incubated at room temperature for 2 hours with shaking. The wells were aspirated and washed 4 times before adding 100 μl of the alkaline phosphatase labeled anti-rabbit antibody and incubating at room temperature for 2 hours with shaking. The plates were then rinsed 5 times and the fluorescent substrate (100 μl) was added to the plate. The plate was incubated for 35 minutes at room temperature and the plate was read using a titer plate reader at an excitation wavelength of 460 nm and emission at 560 nm Compounds were scored based on their ability to modulate levels of Aβ peptides in the plasma and the cerebral soluble/insoluble levels in the brain. Levels of Aβ observed in the plasma and brain of treated animals were normalized using values from vehicle-treated (water) or methylcellulose-treated control groups and ranked according to the strength of the pharmacological effect. Increases in the levels of Aβ peptides are indicated using “+” symbols, while decreases in the levels of Aβ peptides are indicated using “-” symbols. The strongest effects are recorded as “+++” or “- - -” while the weakest are shown as “+” or “-”.

[1] = Brain Homogenate Vehicle Group, Day 14, 250 mg/kg daily
[2] = Brain Homogenate Vehicle Group, Day 28, 250 mg/kg daily
[3] = Plasma Vehicle Group, Day 14, 250 mg/kg daily subcutaneous, normalized to water vehicle control
[4] = Brain Homogenate Vehicle Group, Day 28, total levels, soluble and insoluble not measured independently, 250 mg/kg daily
[5] = Plasma Vehicle Group, Day 28, 250 mg/kg daily subcutaneous, normalized to water vehicle control
[6] = Brain Homogenate Methylcellulose Group, Day 14, 250 mg/kg daily oral
[7] = Brain Homogenate Methylcellulose Group, Day 28, 250 mg/kg daily oral

Compound	Brain homogenate Aβ40 Change Insoluble [1]	Brain homogenate Aβ42 Change Insoluble [1]	Brain homogenate Aβ42 Change Soluble [1]	Brain homogenate Aβ40 Change Insoluble [2]	Brain homogenate Aβ42 Change Insoluble [2]	Brain homogenate Aβ40 Change Soluble [2]	Brain homogenate Aβ42 Change Soluble [2]	other results
COCC(NCCCS(=O)(=O)O)[C@@H](O)c1ccccc1 (stereo in doubt) [EG, 3-[(1R,2S)-2-hydroxy-1-(methoxymethyl)-2-phenylethyl]amino-1-propanesulfonic acid]	−− (decreases of 20 to 38% are scored as “− −”)	−− (decreases of 20 to 38% are scored as “− −”)	−− (decreases of 20 to 38% are scored as “− −”)	−− (decreases of 20 to 38% are scored as “− −”)	−− (decreases of 20 to 38% are scored as “− −”)			Brain homogenate Aβ40 Change Soluble [1]: − (Decreases in the levels of Aβ of 5 to 19% are scored as “−”)
O=S(=O)(O)CCCNC1CC2CCC1C2 (centres unmarked) [BY, 3-(2-norbornyl)amino-1-propanesulfonic acid]	+++ (increases of 70% or higher are scored as “+ + +”)		+++ (increases of 70% or higher are scored as “+ + +”)	+++ (increases of 70% or higher are scored as “+ + +”)	+++ (increases of 70% or higher are scored as “+ + +”)	+ (increases in the levels of Aβ (relative to untreated control) of 20 to 39% are scored as “+”)		Brain homogenate Aβ40 Change Soluble [1]: +++ (increases of 70% or higher are scored as “+ + +”); Plasma Aβ40 Change [3]: + (increases in the levels of Aβ (relative to untreated control) of 20 to 39% are scored as “+”); Plasma Aβ42 Change [3]: + (increases in the levels of Aβ (relative to untreated control) of 20 to 39% are scored as “+”)
CCNCCCS(=O)(=O)O [CV, 3-ethylamino-1-propanesulfonic acid]								Brain homogenate Aβ40 Change, total level (Brain Homogenate Vehicle Group, Day 14, total levels, soluble and insoluble not measured independently, 250 mg/kg daily): − (Decreases in the levels of Aβ of 5 to 19% are scored as “−”); Brain homogenate Aβ40 Change, total level [4]: ++ (increases of 40 to 69% are scored as “++”); Brain homogenate Aβ42 Change, total level [4]: +++ (increases of 70% or higher are scored as “+ + +”); Plasma Aβ40 Change [3]: + (increases in the levels of Aβ (relative to untreated control) of 20 to 39% are scored as “+”); Plasma Aβ42 Change [3]: ++ (increases of 40 to 69% are scored as “++”); Plasma Aβ40 Change [5]: ++ (increases of 40 to 69% are scored as “++”); Plasma Aβ42 Change [5]: ++ (increases of 40 to 69% are scored as “++”)
CC12CC3CC(C)(C1)CC(NCCCS(=O)(=O)O)(C3)C2 [CY]								Brain homogenate Aβ40 Change Soluble [6]: − (Decreases in the levels of Aβ of 5 to 19% are scored as “−”); Brain homogenate Aβ42 Change Insoluble [6]: ++ (increases of 40 to 69% are scored as “++”); Brain homogenate Aβ42 Change Soluble [6]: +++ (increases of 70% or higher are scored as “+ + +”); Brain homogenate Aβ40 Change Insoluble [7]: +++ (increases of 70% or higher are scored as “+ + +”); Brain homogenate Aβ40 Change Soluble [7]: ++ (increases of 40 to 69% are scored as “++”); Brain homogenate Aβ42 Change Insoluble [7]: + (increases in the levels of Aβ (relative to untreated control) of 20 to 39% are scored as “+”); Brain homogenate Aβ42 Change Soluble [7]: +++ (increases of 70% or higher are scored as “+ + +”); Plasma Aβ42 Change (Plasma Methylcellulose Group, Day 28, 250 mg/kg daily oral in 1% methylcellulose, normalized to methylcellulose control): + (increases in the levels of Aβ (relative to untreated control) of 20 to 39% are scored as “+”)
O=S(=O)(O)CC(O)CNC1CCCCC1 (centres unmarked) [DC]	−− (decreases of 20 to 38% are scored as “− −”)	−− (decreases of 20 to 38% are scored as “− −”)	+ (increases in the levels of Aβ (relative to untreated control) of 20 to 39% are scored as “+”)	+ (increases in the levels of Aβ (relative to untreated control) of 20 to 39% are scored as “+”)	+++ (increases of 70% or higher are scored as “+ + +”)	− (Decreases in the levels of Aβ of 5 to 19% are scored as “−”)	++ (increases of 40 to 69% are scored as “++”)	Plasma Aβ40 Change [3]: ++ (increases of 40 to 69% are scored as “++”); Plasma Aβ42 Change [3]: ++ (increases of 40 to 69% are scored as “++”); Plasma Aβ40 Change [5]: ++ (increases of 40 to 69% are scored as “++”)
CCC(CC)NCCCS(=O)(=O)O [DD, 3-(3-pentyl)amino-1-propanesulfonic acid]	− (Decreases in the levels of Aβ of 5 to 19% are scored as “−”)			− (Decreases in the levels of Aβ of 5 to 19% are scored as “−”)				
CC(C)(CO)NCCCS(=O)(=O)O [DH, 3-(1,1-dimethyl-2-hydroxyethyl)amino-1-propanesulfonic acid]	−− (decreases of 20 to 38% are scored as “− −”)	−−− (decreases of 39% or more are scored as “− − −”)	−−− (decreases of 39% or more are scored as “− − −”)	− (Decreases in the levels of Aβ of 5 to 19% are scored as “−”)	− (Decreases in the levels of Aβ of 5 to 19% are scored as “−”)			
CC(C)(NCCCS(=O)(=O)O)c1ccccc1 [DM, 3-cumylamino-1-propanesulfonic acid]	+ (increases in the levels of Aβ (relative to untreated control) of 20 to 39% are scored as “+”)	− (Decreases in the levels of Aβ of 5 to 19% are scored as “−”)	− (Decreases in the levels of Aβ of 5 to 19% are scored as “−”)	−− (decreases of 20 to 38% are scored as “− −”)	−− (decreases of 20 to 38% are scored as “− −”)	− (Decreases in the levels of Aβ of 5 to 19% are scored as “−”)	−− (decreases of 20 to 38% are scored as “− −”)	
C#CC1(NCCCS(=O)(=O)O)CCCCC1 [DX, 3-(1-ethynylcyclohexyl)amino-1-propanesulfonic acid]	−− (decreases of 20 to 38% are scored as “− −”)	− (Decreases in the levels of Aβ of 5 to 19% are scored as “−”)		−− (decreases of 20 to 38% are scored as “− −”)	−− (decreases of 20 to 38% are scored as “− −”)		− (Decreases in the levels of Aβ of 5 to 19% are scored as “−”)	
O=S(=O)(O)CCCNCC(O)c1ccccc1 (centres unmarked) [DY]	−− (decreases of 20 to 38% are scored as “− −”)	−− (decreases of 20 to 38% are scored as “− −”)		−−− (decreases of 39% or more are scored as “− − −”)	−− (decreases of 20 to 38% are scored as “− −”)		− (Decreases in the levels of Aβ of 5 to 19% are scored as “−”)	
COc1ccc([C@H](C)NCCCS(=O)(=O)O)cc1 [DZ, 3-[(S)-1-(4-methoxyphenyl)ethyl]amino-1-propanesulfonic acid]		−− (decreases of 20 to 38% are scored as “− −”)		−− (decreases of 20 to 38% are scored as “− −”)	−− (decreases of 20 to 38% are scored as “− −”)	− (Decreases in the levels of Aβ of 5 to 19% are scored as “−”)	−− (decreases of 20 to 38% are scored as “− −”)	
